Like-named read-outs stand apart in the source and are kept apart here.
Molecular target: T1, Human HIF-PHD2 (Homo sapiens, UniProt Q9GZT9)
T1 construct: FLAG-tagged full length PHD2 expressed in and purified from baculovirus-infected Sf9 cells; FLAG; made in house; host or cells: baculovirus-infected Sf9 cells
Assay: Inhibition of the hydroxylation of a HIF peptide by PHD2 (time resolved fluorescence, 384-well)
Assay type: biochemical
Conditions: FLAG-tagged full length PHD2, 0.2 μM 2-oxoglutarate, 0.5 μM HIF-1α peptide, 45 minutes at room temperature

[1] = read-out: MS m/z (M + 1)+ and human HIF-PHD2 IC50

T1 sequence (Q9GZT9 whole entry): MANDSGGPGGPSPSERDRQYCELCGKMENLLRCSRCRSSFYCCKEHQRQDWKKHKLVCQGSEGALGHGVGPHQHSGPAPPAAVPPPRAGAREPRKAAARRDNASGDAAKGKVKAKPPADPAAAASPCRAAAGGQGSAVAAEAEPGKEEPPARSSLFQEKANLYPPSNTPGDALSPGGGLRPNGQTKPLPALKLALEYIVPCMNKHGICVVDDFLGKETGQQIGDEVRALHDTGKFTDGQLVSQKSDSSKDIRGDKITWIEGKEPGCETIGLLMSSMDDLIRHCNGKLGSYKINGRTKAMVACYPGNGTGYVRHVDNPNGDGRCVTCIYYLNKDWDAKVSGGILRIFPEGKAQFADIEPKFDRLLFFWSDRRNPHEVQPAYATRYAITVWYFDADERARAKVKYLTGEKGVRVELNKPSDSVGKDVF

## O=C(O)CNC(=O)c1c(O)c2ccc(F)c3c2n(c1=O)CC(c1ccc(C(F)(F)F)cc1)O3 (stereo not shown) [Example 67, 2-(10-Fluoro-7-hydroxy-5-oxo-2-(4-(trifluoromethyl)phenyl)-3,5-dihydro-2H-[1,4]oxazino[2,3,4-ij]quinoline-6-carboxamido)acetic acid]
read-out: Human HIF-PHD2 IC50
  IC50: 4.3 nM

## N#Cc1ccc(C2Cn3c(=O)c(C(=O)NCC(=O)O)c(O)c4c(OC(F)(F)F)ccc(c43)O2)cc1 (single isomer, unassigned) [Example 89, 2-(2-(4-cyanophenyl)-7-hydroxy-5-oxo-8-(trifluoromethoxy)-3,5-dihydro-2H-[1,4]oxazino[2,3,4-ij]quinoline-6-carboxamido)acetic acid]
[1]
  IC50: 34 nM

## N#Cc1ccc2c3c1c(O)c(C(=O)NCC(=O)O)c(=O)n3CC(c1ccc(C(F)(F)F)cc1)N2 (stereo not shown) [Example 94, 2-(8-Cyano-7-hydroxy-5-oxo-2-(4-(trifluoromethyl)phenyl)-1,2,3,5-tetrahydropyrido[1,2,3-de]quinoxaline-6-carboxamido)acetic acid]
read-out: Human HIF-PHD2 IC50
  IC50: 0.8 nM

## CS(=O)(=O)c1cc2c3c(c1)c(O)c(C(=O)NCC(=O)O)c(=O)n3C(c1ccc(C(F)(F)F)cc1)CO2 (stereo not shown) [Example 184, ammonium 2-(7-hydroxy-9-(methylsulfonyl)-5-oxo-3-(4-(trifluoromethyl)phenyl)-3,5-dihydro-2H-[1,4]oxazino[2,3,4-ij]quinoline-6-carboxamido)acetate]
[1]
  IC50: 19 nM

## CS(=O)(=O)c1cc2c3c(c1)c(O)c(C(=O)NCC(=O)O)c(=O)n3CC(c1ccc(C(F)(F)F)nc1)C2 (stereo not shown) [Example 85, 2-(1-hydroxy-9-(methylsulfonyl)-3-oxo-6-(6-(trifluoromethyl)pyridin-3-yl)-3,5,6,7-tetrahydropyrido[3,2,1-ij]quinoline-2-carboxamido)acetic acid]
read-out: Human HIF-PHD2 IC50
  IC50: 0.9 nM

## Cc1cc2c3c(c1)c(O)c(C(=O)NCC(=O)O)c(=O)n3C(Cc1ccc(C(F)(F)F)cc1)CO2 (stereo not shown) [Example 7, 2-(7-hydroxy-9-methyl-5-oxo-3-(4-(trifluoromethyl)benzyl)-3,5-dihydro-2H-[1,4]oxazino[2,3,4-ij]quinoline-6-carboxamido)acetic acid]
read-out: Human HIF-PHD2 IC50
  IC50: 37 nM

## N#Cc1ccc(C2Cn3c(=O)c(C(=O)NCC(=O)O)c(O)c4ccc(C(F)(F)F)c(c43)O2)cc1 (single isomer, unassigned) [Example 77, 2-(2-(4-cyanophenyl)-7-hydroxy-5-oxo-10-(trifluoromethyl)-3,5-dihydro-2H-[1,4]oxazino[2,3,4-ij]quinoline-6-carboxamido)acetic acid]
read-out: Human HIF-PHD2 IC50
  IC50: 2 nM

## O=C(O)CNC(=O)c1c(O)c2c(Br)ccc3c2n(c1=O)C(Cc1ccc(C(F)(F)F)cc1)CO3 (stereo not shown) [Example 26, 2-(8-bromo-7-hydroxy-5-oxo-3-(4-(trifluoromethyl)benzyl)-3,5-dihydro-2H-[1,4]oxazino[2,3,4-ij]quinoline-6-carboxamido)acetic acid]
read-out: Human HIF-PHD2 IC50
  IC50: 8.1 nM

## CC(O)(CO)c1cc2c3c(c1)c(O)c(C(=O)NCC(=O)O)c(=O)n3C(Cc1ccc(C(F)(F)F)cc1)CO2 (stereo not shown) [Example 8, 2-(9-(1,2-Dihydroxypropan-2-yl)-7-hydroxy-5-oxo-3-(4-(trifluoromethyl)benzyl)-3,5-dihydro-2H-[1,4]oxazino[2,3,4-ij]quinoline-6-carboxamido)acetic acid]
read-out: Human HIF-PHD2 IC50
  IC50: 30 nM

## CN1CC(c2cncs2)n2c(=O)c(C(=O)NCC(=O)O)c(O)c3cccc1c32 (stereo not shown) [Example 113, 2-(7-Hydroxy-1-methyl-5-oxo-3-(thiazol-5-yl)-1,2,3,5-tetrahydropyrido[1,2,3-de]quinoxaline-6-carboxamido)acetic acid]
read-out: Human HIF-PHD2 IC50
  IC50: 125 nM

## O=C(O)CNC(=O)c1c(O)c2cccc3c2n(c1=O)CC(c1cncs1)N3 (stereo not shown) [Example 110, 2-(7-Hydroxy-5-oxo-2-(thiazol-5-yl)-1,2,3,5-tetrahydropyrido[1,2,3-de]quinoxaline-6-carboxamido)acetic acid]
read-out: Human HIF-PHD2 IC50
  IC50: 12 nM

## O=C(O)CNC(=O)c1c(O)c2c(Br)ccc3c2n(c1=O)C(c1ccc(C(F)(F)F)cc1)CO3 (stereo not shown) [Example 169, 2-(8-bromo-7-hydroxy-5-oxo-3-(4-(trifluoromethyl)phenyl)-3,5-dihydro-2H-[1,4]oxazino[2,3,4-ij]quinoline-6-carboxamido)acetic acid]
[1]
  IC50: 16 nM

## O=C(O)CNC(=O)c1c(O)c2cccc3c2n(c1=O)CC(c1ccc(C(F)(F)F)cc1)N3 (stereo not shown) [Example 108, 2-(7-Hydroxy-5-oxo-2-(4-(trifluoromethyl)phenyl)-1,2,3,5-tetrahydropyrido[1,2,3-de]quinoxaline-6-carboxamido)acetic acid]
read-out: Human HIF-PHD2 IC50
  IC50: 6.5 nM

## O=C(O)CNC(=O)c1c(O)c2ccc(-c3ccccc3)c3c2n(c1=O)CCO3 [Example 40, 2-(7-hydroxy-5-oxo-10-phenyl-3,5-dihydro-2H-[1,4]oxazino[2,3,4-ij]quinoline-6-carboxamido)acetic acid]
[1]
  IC50: 1.6 nM

## CS(=O)(=O)c1cc2c3c(c1)c(O)c(C(=O)NCC(=O)O)c(=O)n3CC(c1ccc(C(F)(F)F)cc1)O2 (single isomer, unassigned) [Example 17, 2-(7-Hydroxy-9-(methylsulfonyl)-5-oxo-2-(4-(trifluoromethyl)phenyl)-3,5-dihydro-2H-[1,4]oxazino[2,3,4-ij]quinoline-6-carboxamido)acetic acid]
read-out: Human HIF-PHD2 IC50
  IC50: 0.9 nM

## O=C(O)CNC(=O)c1c(O)c2ccc(Cl)c3c2n(c1=O)CC(c1ccc(C(F)(F)F)cc1)O3 (single isomer, unassigned) [Example 73, 2-(10-chloro-7-hydroxy-5-oxo-2-(4-(trifluoromethyl)phenyl)-3,5-dihydro-2H-[1,4]oxazino[2,3,4-ij]quinoline-6-carboxamido)acetic acid]
[1]
  IC50: 2.8 nM
